Data reported in paper PMC4718940, “Preclinical studies of 5-fluoro-2′-deoxycytidine and tetrahydrouridine in pediatric brain tumors” (Journal of Neuro-Oncology, 2015).
Read-outs that look alike come from different tables or passages of the source.

Experiments:
G3 MB tumors = assay: In vivo apoptosis, Caspase 3 immunohistochemistry, G3 MB
[1] = test system: mouse G3 MB tumorspheres (Myc1, Myc2); assay: In vitro apoptosis, Annexin V and DAPI FACS; type: cell-based; conditions: 4 nM FdCyd alone, 24, 48, 72 h, compared to DMSO-treated cells
From the text: (§1) See Supplementary Material for more details.
(§2) Tumors were fixed in 10% formalin.

BJ cells = assay: FdCyd growth inhibition, BJ control cells; type: cell-based, human; conditions: Fig. 2c
[2] = test system: tumorspheres derived from murine G3 MB, EP, and CPC; assay: In vitro growth inhibition, all three tumor cell types (summary); type: cell-based; conditions: Mus musculus, 72 hr
mouse EP neurospheres = assay: 72 h dose response, CellTiter-Glo, mouse EP neurospheres; type: cell-based; conditions: Mus musculus, Fig. 2a, read-out: EC50
Method: (§3) In the Discovery Phase, the initial studies included the screen of a library of 9 compounds against epigenetic regulators at a single concentration and a dose-response on G3 MB, EP, and CPC tumor cells, as well as HEPG2 and BJ (Fig. 1). The library and dose response studies are described in the Supplementary Material.
(§4) Briefly, cells (see Supplementary Table S2 for cell identity) were plated in 384-well plates (Corning) in 30 µL of supplemented neurobasal medium by using an automated plate filler (Wellmate, Matrix). After 24 hr, 28 nL of compound was transferred via pin tool, resulting in a final drug concentration of approximately 4 nM to 10 µM. After 72 hr of treatment, CellTiter-Glo reagent (Promega) was added, and the luminescence signal was measured using an automated Envision plate reader (Perkin-Elmer). Luminescence data were normalized by log10-transformation prior to calculating the percentage of inhibition using the following equation: 100 × (negative control mean − compound value)/(negative control mean − positive control mean). Our negative control represents cells treated with 0.1% DMSO with 0% inhibition. Cells treated with 35 µM cycloheximide (G3 MB tumor spheres) or 10 µM panobinostat (EP and CPC cells) were used as positive controls with 100% inhibition. The response of cells to the compounds were normalized to that of the positive controls present in each plate screened, shown in the Y axis of the dose-response curve. […] Unless otherwise reported, the y-axis for each dose response curve in the figures was independently normalized to the range from 0 to 1 and therefore reported as ‘relative growth inhibition’. High through put assay data were analyzed by using our in-house Robust Interpretation of Screening Experiments (RISE) application that was written in Pipeline Pilot (Accelrys, v. 8.5) and R (R Development Core Team).

[3] = test system: Ink4a/Arf−/− neural stem cells; assay: FdCyd growth inhibition, neural stem cells; type: cell-based, mouse; conditions: Fig. 2c
[4] = test system: mouse G3 MB tumorspheres (Myc1, Myc2); assay: In vitro proliferation/cell cycle, BrdU FACS; type: cell-based; conditions: 4 nM FdCyd alone, compared to DMSO-treated cells
From the text: as §1, §2

[5] = Cerebral microdialysis, tECF disposition in tumor-bearing CD1 nude mice; type: in vivo; conditions: mouse, tumor extracellular fluid (dialysate) vs plasma, FdCyd 6 mg/kg with THU 100 mg/kg, read-out: tECF-to-plasma partition coefficient of unbound FdCyd (Kpt,uu), mean ± SD
Method: Once a drug passed the Discovery Phase it was moved to the Pre-Clinical Phase, which included PK and PD studies (Fig. 1). The details of the plasma PK and cerebral microdialysis studies are provided in the Supplemental Materials.
Cerebral microdialysis studies were performed in CD1 nude mice orthotopically transplanted with G3 MB, EP, or CPC tumors [,2,6]. Plasma and dialysate samples collected during microdialysis studies were analyzed by using LC-MS/MS to determine drug concentrations. Data obtained from microdialysis performed in individual tumor models were analyzed separately by using a compartmental approach. A model with a tECF compartment that was linked to the plasma compartment by using efflux (CL32) and influx (CL23) clearances was fit to the plasma and tumor ECF concentration-time data. These were obtained from previous plasma PK studies in all tumor models and from each microdialysis by using separate, tumor-specific population NONMEM 7.2.
The tECF-to-plasma partition coefficient of unbound drug (Kpt,uu) was calculated as a ratio of CL23 to CL32. The mean ± SD of individual tECF-to-plasma partition coefficients of unbound FdCyd (Kpt,uu) in CD1 nude mice bearing G3 MB, EP, and CPC were 0.06 ± 0.02, 0.18 ± 0.14, and 0.09 ± 0.04, respectively. […] Inter-animal variability in Kpt,uu, however, was higher in EP tumors than in G3 MB and CPC tumors.The area under plasma concentration-time curve (AUCplasma) was calculated as the ratio of dosage to CL, whereas AUCtECF was calculated as the product of AUCplasma and Kpt,uu.

EP cells = assay: FdCyd wash-out experiment, EP; type: cell-based; conditions: Mus musculus
Method: Myc1 and Myc2 G3 MB, EP, and CPC tumor cells (Supplementary Table 1) were plated in 96-well plates. After 24 h, 128 nL of a dilution series of a selected drug was transferred creating a final drug concentration of 0.5–9.3 µM. To assess the optimal exposure time, the drug was removed and replaced with fresh medium after 1, 3, 6, 10, 24, or 72 h (“wash-out”).
In both experiments, 72 h after drug addition to cells, we added 100 µL of CellTiter-Glo reagent (Promega), and we read the luminescence signal. Data analysis used GraphPad Prism software (Version 5.04).

[6] = test system: mouse CPC neurospheres (CPC300); assay: 72 h dose response, CellTiter-Glo, mouse CPC neurospheres; type: cell-based; conditions: Mus musculus, Fig. 2a, read-out: EC50
Method: as §3, §4

[7] = test system: Trp53−/−, Cdkn2c−/− neurospheres; assay: FdCyd growth inhibition, control neurospheres; type: cell-based, mouse; conditions: Fig. 2c
[8] = test system: Trp53−/−, Cdkn2c−/− neurospheres; assay: In vitro cell cycle and apoptosis, control neurospheres; type: cell-based, mouse; conditions: 4 nM FdCyd
From the text: as §1, §2

EP tumors = assay: In vivo apoptosis, Caspase 3 immunohistochemistry, EP

EC50 [2]: 1 to 6 nM | Kp ([5]; mice bearing CPC): 0.09 ± 0.04 | Kp ([5]; mice bearing EP): 0.18 ± 0.14 | Kp ([5]; mice bearing G3 MB): 0.06 ± 0.02 | EC50 (EP cells; 1 h exposure then wash-out, read at 72 h, read-out: EC50 after 1 h FdCyd exposure): 22 ± 8 nM | EC50 (EP cells; 72 h, wash-out, 1st of 4 values listed for the remaining time points (3, 6, 10, 24, 72 h), read-out: EC50, longer exposure): 17 nM | EC50 (EP cells; 72 h, wash-out, 2nd of 4 values listed for the remaining time points (3, 6, 10, 24, 72 h), read-out: EC50, longer exposure): 13 nM | EC50 (EP cells; 72 h, wash-out, 3rd of 4 values listed for the remaining time points (3, 6, 10, 24, 72 h), read-out: EC50, longer exposure): 3 nM | EC50 (EP cells; 72 h, wash-out, 4th of 4 values listed for the remaining time points (3, 6, 10, 24, 72 h), read-out: EC50, longer exposure): 0.7 nM
Compound: Nc1nc(=O)n([C@H]2C[C@H](O)[C@@H](CO)O2)cc1F [FdCyd, 5-fluoro-2′-deoxycytidine]
Caspase-3 % of positive cells (G3 MB tumors; 3 hr after IP injection of FdCyd + THU, vehicle 12.37): 19.88% | Caspase-3 % of positive cells (G3 MB tumors; 8 hr after IP injection of FdCyd + THU, vehicle 8.945): 11.04% | Caspase-3 % of positive cells (G3 MB tumors; 24 hr after IP injection of FdCyd + THU, vehicle 9.419): 10.38% | number of apoptotic cells (Annexin V) [1]: increased | sensitivity to FdCyd (growth inhibition) (BJ cells): not | EC50 (mouse EP neurospheres): 4 nM | sensitivity to FdCyd (growth inhibition) [3]: showed sensitivity | cell cycle distribution (BrdU) [4]: increased the number of cells in the G0/G1phase | EC50 [6]: 5.6 nM | sensitivity to FdCyd (growth inhibition) [7]: showed sensitivity | effect on cell cycle and apoptosis of control neurospheres [8]: without affecting control neurospheres | Caspase-3 % of positive cells (EP tumors; 3 hr after IP injection of FdCyd + THU, vehicle 0.9975): 1.416% | Caspase-3 % of positive cells (EP tumors; 8 hr after IP injection of FdCyd + THU, vehicle 1.110): 1.210% | Caspase-3 % of positive cells (EP tumors; 24 hr after IP injection of FdCyd + THU, vehicle 1.427): 1.030%
